The target in the experiment is T1, rat CB-1 receptor (Rattus norvegicus, UniProt P20272).
T1 construct: The tissue obtained from the brain of SD rats was homogenized; from tissue; host or cells: SD rat brain (membrane pellet of homogenate)
Put plainly: rat CB-1 receptor binding protocol with [3H]CP-55940 on SD rat brain tissue. The following applies: [3H]CP-55940 displacement, SD rat brain homogenate, 30° C., 60 min; read-out: IC50 (binding affinity for CB1 receptor).

Each structure is given as a SMILES string.

Drawing on patent US20080262066A1, “Azole Derivatives as Cannabinoid CB1 Receptor Antagonists” (Green Cross Corporation, priority 2007, published 2008), this text covers IC50 for seven molecules.

The term IC50 denotes the concentration needed to halve the response being measured.

T1 sequence (P20272 whole entry): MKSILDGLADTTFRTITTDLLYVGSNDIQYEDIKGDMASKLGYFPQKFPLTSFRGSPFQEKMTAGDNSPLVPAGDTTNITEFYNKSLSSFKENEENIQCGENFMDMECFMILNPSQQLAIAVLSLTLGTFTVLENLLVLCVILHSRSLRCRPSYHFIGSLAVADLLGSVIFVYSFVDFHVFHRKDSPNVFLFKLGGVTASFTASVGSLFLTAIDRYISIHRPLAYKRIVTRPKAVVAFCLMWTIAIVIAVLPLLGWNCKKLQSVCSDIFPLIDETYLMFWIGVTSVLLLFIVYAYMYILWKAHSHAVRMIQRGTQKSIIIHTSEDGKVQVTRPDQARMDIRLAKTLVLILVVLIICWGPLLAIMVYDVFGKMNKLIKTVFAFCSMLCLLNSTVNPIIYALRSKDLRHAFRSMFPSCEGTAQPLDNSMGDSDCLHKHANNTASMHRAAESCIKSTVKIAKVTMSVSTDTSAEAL
Method: The tissue obtained from the brain of SD rats was homogenized with a Dounce homogenate system in TME (50 mM Tris, 3 mM MgCl2 and 1 mM EDTA, pH 7.4) at 4° C., and the homogenate was centrifuged at 48,000 g for 30 min. at 4° C. The pellet was resuspended in 5 ml of TME and the suspension was divided into aliquots and stored at −70° C. until its use in the following assay.
The tissue concentrations were determined by Bradford protein analysis, and 148 μl of brain tissue of the required concentration was added to the plate. The plate was covered and placed in a 30° C. incubator for 60 min, and then transformed on GF/B filtermat pretreated in polyethylenimine (PEI) using a cell harvester. Each filter was washed five times and dried at 60° C. for 1 hr. Then, the degree of radioactivity retained by the filter was measured using Wallac Microbeta™ (PerkinElmer Life Sciences, Inc., Massachusetts, U.S.A.) and the activity of the compound for inhibiting CB1 receptor was determined therefrom.

In the case of `Cc1c(C(=O)NCNC(=O)C2CCCCC2)nn(-c2ccc(Cl)cc2Cl)c1-c1ccc(Cl)cc1` [Example 35, 5-(4-Chlorophenyl)-N-(cyclohexanecarboxamidomethyl)-1-(2,4-dichlorophenyl)-4-methyl-1H-pyrazole-3-carboxamide], the IC50 stood at 0.0492 µM.

`CCCC(=O)NCNC(=O)c1nn(-c2ccc(Cl)cc2Cl)c(-c2ccc(Cl)cc2)c1C` [Example 36, N-(Butyramidomethyl)-5-(4-chlorophenyl)-1-(2,4-dichlorophenyl)-4-methyl-1H-pyrazole-3-carboxamide]: the IC50 was 0.905 µM. Consider `Cc1c(C(=O)NCNC(=O)C(C)C)nn(-c2ccc(Cl)cc2Cl)c1-c1ccc(Cl)cc1` [Example 37, 5-(4-Chlorophenyl)-1-(2,4-dichlorophenyl)-N-(isobutyramidomethyl)-4-methyl-1H-pyrazole-3-carboxamide], for which the IC50 was 0.951 µM.

As to `Cc1c(C(=O)NCNC(=O)C2CCCCCC2)nn(-c2ccc(Cl)cc2Cl)c1-c1ccc(Cl)cc1` [Example 38, 5-(4-Chlorophenyl)-N-(cycloheptanecarboxamidomethyl)-1-(2,4-dichlorophenyl)-4-methyl-1H-pyrazole-3-carboxamide], the IC50 came out at 0.0756 µM.

On to `Cc1c(C(=O)NCNC(=O)CC2CCCCC2)nn(-c2ccc(Cl)cc2Cl)c1-c1ccc(Cl)cc1` [Example 39, 5-(4-Chlorophenyl)-N-((2-cyclohexylacetamido)methyl)-1-(2,4-dichlorophenyl)-4-methyl-1H-pyrazole-3-carboxamide], for which the IC50 stood at 0.0465 µM.

Consider `Cc1c(C(=O)NCNC(=O)C2CCCC(C)C2)nn(-c2ccc(Cl)cc2Cl)c1-c1ccc(Cl)cc1` (stereo not shown) [Example 40, 5-(4-Chlorophenyl)-1-(2,4-dichlorophenyl)-4-methyl-N-((3-methylcyclohexanecarboxamido)methyl)-1H-pyrazole-3-carboxamide], for which the IC50 turned out to be 0.102 µM. To `Cc1c(C(=O)NCNC(=O)CC2CCCC2)nn(-c2ccc(Cl)cc2Cl)c1-c1ccc(Cl)cc1` [Example 41, 5-(4-Chlorophenyl)-N-((2-cyclopentylacetamido)methyl)-1-(2,4-dichlorophenyl)-4-methyl-1H-pyrazole-3-carboxamide] belongs 0.138 µM.
